In brackets after ≈: the same amount, converted by molar mass.

Data on 26 compounds can be found in ChEMBL document CHEMBL1143329, “Discovery and SAR of benzyl phenyl ethers as inhibitors of bacterial phenylalanyl-tRNA synthetase” (Bioorg Med Chem Lett, 2009).

The nature of series [1]: Inhibition of Haemophilus influenzae phenylalanyl-tRNA synthetase.
Series [2] can be described thus: Inhibition of Streptococcus pneumoniae phenylalanyl-tRNA synthetase.
A short description of series [3]: Apparent intrinsic clearance in human liver microsomes. Type of series: ADME, Microsome. (In general: Microsomes from liver hold many membrane-bound enzymes, among them those of drug oxidation.)
Series [4] in a line: Membrane permeability by PAMPA. The following applies: for Papp: read-out: Activity. Type of series: ADME. Background: PAMPA measures passive passage across an artificial lipid membrane.
A further series addresses T1, CYP1A2 (Homo sapiens, UniProt P05177).
T1 sequence (P05177 whole entry): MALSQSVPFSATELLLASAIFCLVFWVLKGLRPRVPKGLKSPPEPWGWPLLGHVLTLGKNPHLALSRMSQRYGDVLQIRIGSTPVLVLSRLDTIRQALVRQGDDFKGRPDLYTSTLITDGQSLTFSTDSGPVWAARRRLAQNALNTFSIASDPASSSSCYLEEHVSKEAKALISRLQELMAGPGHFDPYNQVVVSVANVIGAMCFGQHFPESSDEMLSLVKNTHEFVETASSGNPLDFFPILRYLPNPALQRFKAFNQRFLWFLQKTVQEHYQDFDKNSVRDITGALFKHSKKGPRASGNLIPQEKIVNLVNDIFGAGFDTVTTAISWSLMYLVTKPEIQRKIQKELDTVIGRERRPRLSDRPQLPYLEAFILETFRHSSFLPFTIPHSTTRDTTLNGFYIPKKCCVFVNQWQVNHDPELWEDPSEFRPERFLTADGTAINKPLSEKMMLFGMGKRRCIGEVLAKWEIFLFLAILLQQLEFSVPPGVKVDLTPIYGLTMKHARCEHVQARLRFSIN
In words: (§1) Inhibition of human CYP1A2 at 3 uM. It counts as ADME. The note with it: read-out: Activity.

In series [5] the test system is Haemophilus influenzae. The experiment in a line: Antibacterial activity against AcrA pump deficient Haemophilus influenzae. It counts as functional.
Series [6] concerns Haemophilus influenzae. In words: Antibacterial activity against wild type Haemophilus influenzae. Type of series: functional.
For the next series, the system named is Streptococcus pneumoniae. The experiment in a line: Antibacterial activity against wild type Streptococcus pneumoniae. It counts as functional.
The target of series [7] is Voltage-gated inwardly rectifying potassium channel KCNH2 (Homo sapiens, UniProt Q12809). In words: Displacement of [3H]dofetilide from human ERG channel. In general terms: In a radioligand displacement assay an active substance lowers the binding of a labelled ligand.
Chain of Voltage-gated inwardly rectifying potassium channel KCNH2 (Q12809 whole entry): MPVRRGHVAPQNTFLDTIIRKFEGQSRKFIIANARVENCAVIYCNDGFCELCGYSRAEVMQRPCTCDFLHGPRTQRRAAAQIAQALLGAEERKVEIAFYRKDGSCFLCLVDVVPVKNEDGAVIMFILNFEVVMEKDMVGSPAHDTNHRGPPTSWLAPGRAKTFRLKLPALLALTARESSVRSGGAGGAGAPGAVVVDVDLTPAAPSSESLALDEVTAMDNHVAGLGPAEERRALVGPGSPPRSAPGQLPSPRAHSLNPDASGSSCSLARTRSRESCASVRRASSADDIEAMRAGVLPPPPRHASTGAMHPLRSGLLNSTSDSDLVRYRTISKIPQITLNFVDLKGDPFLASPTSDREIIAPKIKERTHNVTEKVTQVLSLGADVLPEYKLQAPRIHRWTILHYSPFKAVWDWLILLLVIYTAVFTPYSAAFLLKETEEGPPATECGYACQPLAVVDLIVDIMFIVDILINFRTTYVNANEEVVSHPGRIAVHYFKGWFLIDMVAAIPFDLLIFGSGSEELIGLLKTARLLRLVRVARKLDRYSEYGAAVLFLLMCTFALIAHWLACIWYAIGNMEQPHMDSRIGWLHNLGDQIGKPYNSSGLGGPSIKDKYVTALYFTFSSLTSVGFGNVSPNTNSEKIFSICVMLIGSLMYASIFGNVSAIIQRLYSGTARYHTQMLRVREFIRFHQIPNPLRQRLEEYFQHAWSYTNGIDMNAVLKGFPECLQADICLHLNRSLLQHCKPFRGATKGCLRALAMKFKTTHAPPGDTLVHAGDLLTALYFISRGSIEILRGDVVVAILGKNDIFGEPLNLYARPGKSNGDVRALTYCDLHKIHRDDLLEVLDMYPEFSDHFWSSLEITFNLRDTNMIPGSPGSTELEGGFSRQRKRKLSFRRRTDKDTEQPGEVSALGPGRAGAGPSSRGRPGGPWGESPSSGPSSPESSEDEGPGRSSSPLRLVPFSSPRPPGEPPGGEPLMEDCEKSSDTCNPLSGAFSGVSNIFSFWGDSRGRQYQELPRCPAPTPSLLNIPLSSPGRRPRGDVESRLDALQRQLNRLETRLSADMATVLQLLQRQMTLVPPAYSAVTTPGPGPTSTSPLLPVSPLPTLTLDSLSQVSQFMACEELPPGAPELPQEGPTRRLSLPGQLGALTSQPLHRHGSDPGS
In a further series the target is T2, Cytochrome P450 1A2 (Homo sapiens, UniProt P05177).
T2 sequence (P05177 whole entry): T1 sequence (P05177 whole entry)
Described as §1. It counts as ADME. The following applies: 3 µM.

In a further series the target is Cytochrome P450 2C9 (Homo sapiens, UniProt P11712). The experiment in a line: Inhibition of human CYP2C9 at 3 uM. It counts as ADME.
Chain of Cytochrome P450 2C9 (P11712 whole entry): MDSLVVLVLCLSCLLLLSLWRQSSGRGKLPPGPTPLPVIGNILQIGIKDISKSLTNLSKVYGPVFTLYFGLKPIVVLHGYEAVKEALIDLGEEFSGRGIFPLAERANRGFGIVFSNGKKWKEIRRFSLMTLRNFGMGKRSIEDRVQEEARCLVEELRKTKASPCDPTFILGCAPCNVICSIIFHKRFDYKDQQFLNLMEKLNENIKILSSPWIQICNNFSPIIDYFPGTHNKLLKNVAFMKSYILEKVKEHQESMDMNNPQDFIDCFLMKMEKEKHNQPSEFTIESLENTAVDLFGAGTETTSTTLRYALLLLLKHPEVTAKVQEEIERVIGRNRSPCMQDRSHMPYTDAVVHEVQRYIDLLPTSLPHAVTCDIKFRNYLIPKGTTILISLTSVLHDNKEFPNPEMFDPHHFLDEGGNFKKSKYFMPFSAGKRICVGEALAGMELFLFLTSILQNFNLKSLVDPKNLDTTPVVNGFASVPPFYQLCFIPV
In the next series the target is Cytochrome P450 2D6 (Homo sapiens, UniProt P10635). In words: Inhibition of human CYP2D6 at 3 uM. Type of series: ADME.
Chain of Cytochrome P450 2D6 (P10635 whole entry): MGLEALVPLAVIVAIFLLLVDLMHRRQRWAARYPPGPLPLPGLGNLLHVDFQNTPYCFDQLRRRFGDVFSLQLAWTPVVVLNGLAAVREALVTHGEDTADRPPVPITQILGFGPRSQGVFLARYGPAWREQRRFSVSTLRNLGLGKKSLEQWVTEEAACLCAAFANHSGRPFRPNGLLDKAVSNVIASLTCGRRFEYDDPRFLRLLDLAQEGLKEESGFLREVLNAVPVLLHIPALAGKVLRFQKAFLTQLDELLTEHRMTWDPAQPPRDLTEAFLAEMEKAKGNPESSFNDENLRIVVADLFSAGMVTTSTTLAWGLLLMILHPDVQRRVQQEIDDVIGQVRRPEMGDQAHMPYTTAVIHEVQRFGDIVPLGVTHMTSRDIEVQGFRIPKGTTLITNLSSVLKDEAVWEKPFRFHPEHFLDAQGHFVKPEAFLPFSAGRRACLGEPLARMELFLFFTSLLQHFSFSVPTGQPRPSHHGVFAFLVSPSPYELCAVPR
Another series has as its target Cytochrome P450 3A4 (Homo sapiens, UniProt P08684). The experiment in a line: Inhibition of human CYP3A4 at 3 uM. Type of series: ADME.
The target of the next series is hERG (KCNH2) (Homo sapiens, UniProt Q12809). In words: Displacement of [3H]dofetilide from human ERG channel at 10 nM. The following applies: probe [3H]dofetilide, read-out: Activity.
Chain of hERG (KCNH2) (Q12809 whole entry): as the sequence (Q12809 whole entry) above

Chain of Cytochrome P450 3A4 (P08684 whole entry): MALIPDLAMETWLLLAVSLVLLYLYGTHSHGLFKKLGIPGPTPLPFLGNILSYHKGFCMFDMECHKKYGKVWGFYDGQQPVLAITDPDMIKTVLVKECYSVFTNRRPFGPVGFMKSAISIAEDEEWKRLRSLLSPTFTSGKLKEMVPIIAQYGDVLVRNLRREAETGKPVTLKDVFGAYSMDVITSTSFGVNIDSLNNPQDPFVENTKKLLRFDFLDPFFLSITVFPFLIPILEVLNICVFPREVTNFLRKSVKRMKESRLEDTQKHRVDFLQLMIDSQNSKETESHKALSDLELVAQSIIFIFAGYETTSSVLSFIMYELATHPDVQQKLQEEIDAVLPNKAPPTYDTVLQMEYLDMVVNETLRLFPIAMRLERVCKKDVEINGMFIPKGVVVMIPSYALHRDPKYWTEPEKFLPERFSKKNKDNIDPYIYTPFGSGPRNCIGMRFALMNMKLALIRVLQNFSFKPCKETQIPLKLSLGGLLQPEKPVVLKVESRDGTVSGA

One may read the IC50 as the point on the concentration scale where inhibition reaches its midpoint. Low readings indicate inhibition by little substance, high ones a need for much substance. Usually CLint scaled stands for a measure of how fast metabolising enzymes remove a compound, apart from limits set by blood flow. Take `Clc1cccc(COc2cnc(-c3nnco3)cc2Cl)c1`: the IC50 was 12 µM in [1] and 97 µM in [2]. In addition, the CLint scaled in series [3] was less than 10.1 mL/min/kg. Further, in series [4], the Papp was 5.31 ×10⁻⁶ cm/s. In addition, at CYP1A2, the inhibition at 3 µM came out at 38%.
For the compound `CC(CO)NC(=O)c1ccc(OCc2cc(Cl)ccn2)c(Cl)c1` (stereo unspecified), the IC50 in series [1] worked out at 4.6 µM; in series [2] it was 43 µM. For the same compound, the values for the MIC against Haemophilus influenzae [5], with Haemophilus influenzae [6] and in the series with Streptococcus pneumoniae were 2 µg/mL (≈ 5.63 µM), 32 µg/mL (≈ 90.1 µM) and 32 µg/mL (≈ 90.1 µM), respectively.
`CC(CO)NC(=O)c1ccc(OCc2cccc(Cl)c2)c(Cl)c1` (stereo unspecified): the IC50 in series [1] is 29 µM; in series [2], 483 µM. Also, the MIC against Haemophilus influenzae [5] is 4 µg/mL (≈ 11.3 µM); in the series on Haemophilus influenzae [6], greater than 32 µg/mL; against Streptococcus pneumoniae, 32 µg/mL (≈ 90.3 µM).
In the case of `CS(=O)(=O)c1nnc(-c2ccc(OCc3cccc(Cl)c3)c(Cl)c2)o1`, the IC50 in series [1] was determined as 2.1 µM; in [2] it was 53 µM. In addition, the MIC in the series with Haemophilus influenzae [5] was 1 µg/mL (≈ 2.5 µM); with Haemophilus influenzae [6] it was 32 µg/mL (≈ 80.1 µM); against Streptococcus pneumoniae, greater than 32 µg/mL.
One may read the Ki as a measure of affinity in units of concentration, obtained from inhibition or displacement. With `CN1CCN(C(=O)c2ccc(OCc3cccc(Cl)c3)c(Cl)c2)CC1=O`, the IC50 in [1] turned out to be 0.038 µM; in [2], 1.3 µM. Further, the CLint scaled in [3] was less than 7.6 mL/min/kg. The Papp in series [4] was 16.4 ×10⁻⁶ cm/s. In series [7], the Ki worked out at 0.0372 µM. For the same compound, the Activity entry at Cytochrome P450 1A2, on Cytochrome P450 2C9, on Cytochrome P450 2D6 and on Cytochrome P450 3A4 was “Not Active” each time.
On to `C[S+]([O-])c1nnc(-c2ccc(OCc3cccc(Cl)c3)c(Cl)c2)o1` (stereo unspecified), for which the IC50 was found to be 1.5 µM in [1] and 36 µM in series [2].
On the same counts, the results for `COC(=O)c1ccc(OCc2cccc(Cl)c2)c(C)c1` are 0.034 µM and 0.097 µM.
Turning to `O=C(NCCCCO)c1ccc(OCc2cccc(Cl)c2)c(Cl)c1`, the IC50 in series [1] worked out at 22 µM; in series [2], 254 µM. Also, the CLint scaled in [3] was less than 7.6 mL/min/kg. Moreover, the Papp in series [4] worked out at 1.22 ×10⁻⁶ cm/s. Moreover, in series [7], the Ki is greater than 0.1 µM. Further, the Activity result on Cytochrome P450 1A2, on Cytochrome P450 2C9, at Cytochrome P450 2D6 and on Cytochrome P450 3A4 was “Not Active” each time.
In the case of `Cc1cc(C(=O)N2CCN(C)CC2)ccc1C(CO)c1cccc(Cl)c1` (stereo unspecified), the IC50 in series [1] and in series [2] was greater than 64 µM in each case.
On to `O=C(O)Cc1nnc(-c2ccc(OCc3cccc(Cl)c3)c(Cl)c2)o1`, for which the figures for the IC50 in series [1] and in series [2] were 11 µM and 110 µM, respectively.
In the case of `COC(=O)c1ccc(CNc2cccc(Cl)c2)cc1`, the half-inhibitory concentration (IC50) in [1] is 57 µM; in series [2] it was greater than 64 µM.
On to `CSc1nnc(-c2ccc(OCc3cccc(Cl)c3)c(Cl)c2)o1`, for which the IC50 was found to be 5.5 µM in [1] and 81 µM in series [2].
As for `COC(=O)c1ccc(OCc2cccc(Cl)c2)c(Cl)c1`, the IC50 in series [1] came to 0.017 µM; in series [2], 0.091 µM.
As for `NC(=O)c1nnc(-c2cc(Cl)c(OCc3cccc(Cl)c3)cn2)o1`, the values for the IC50 in series [1] and in series [2] were 2.7 µM and 60 µM, respectively.
As for `CN1CCN(C(=O)c2ccc(C[S+]([O-])c3cccc(Cl)c3)c(Cl)c2)CC1=O` (stereo unspecified), the IC50 in [1] stood at 2.4 µM; in series [2], 23 µM.
As for `O=C(NCCN1CCOCC1)c1cc(Cl)c(OCc2cccc(Cl)c2)cn1`, the IC50 in series [1] is 8 µM; in series [2], 65 µM. Moreover, the MIC was determined as 1 µg/mL (≈ 2.44 µM) against Haemophilus influenzae [5], 32 µg/mL (≈ 78 µM) against Haemophilus influenzae [6] and 8 µg/mL (≈ 19.5 µM) in the series with Streptococcus pneumoniae.
Regarding `Cc1cc(C(=O)N2CCN(C(=O)C3CCCO3)CC2)ccc1OCc1cccc(Cl)c1` (stereo unspecified), the IC50 in series [1] was found to be 0.067 µM; in [2], 3.7 µM. In addition, the CLint scaled in [3] turned out to be 55.1 mL/min/kg. Moreover, the Papp in series [4] amounted to 10.8 ×10⁻⁶ cm/s. The Ki in [7] is 0.0239 µM. The Activity entry at Cytochrome P450 1A2, on Cytochrome P450 2C9, on Cytochrome P450 2D6 and on Cytochrome P450 3A4 was “Not Active” throughout.
Take `Cc1nnc(-c2ccc(OCc3cccc(Cl)c3)c(Cl)c2)o1`: the IC50 is 6.6 µM in series [1] and 95 µM in series [2].
As for `CC(=O)NC1CCN(Cc2ccc(OCc3ccc(Cl)cc3)c(Cl)c2)C1` (stereo unspecified), the values for the IC50 in series [1] and in series [2] were 0.24 µM and 2.2 µM, respectively. For the same compound, the CLint scaled in [3] worked out at 9.63 mL/min/kg. Also, the Activity result in series [4] was “Not Active”. The inhibition at 0.01 µM on hERG (KCNH2) was 89%.
For the compound `OCCc1nnc(-c2ccc(OCc3cccc(Cl)c3)c(Cl)c2)o1`, the IC50 in [1] was found to be 3.1 µM; in series [2], 87 µM.
`COC(=O)c1ccc(C(=O)Nc2cccc(Cl)c2)cc1`: the IC50 in [1] and in series [2] was greater than 64 µM each time.
With `O=C(NCC1CC1)c1cc(Cl)c(OCc2cccc(Cl)c2)cn1`, the figures for the IC50 in series [1] and in series [2] were 30 µM and 50 µM, respectively.
On the same counts, the results for `COC(=O)c1ccc(OCc2cccc(Cl)c2)cc1` are 3.1 µM and 12 µM.
Consider `NC(=O)Cc1nnc(-c2ccc(OCc3cccc(Cl)c3)c(Cl)c2)o1`, for which the IC50 is 1.7 µM in [1] and 126 µM in [2].
Taken in the same sequence, the figures for `Cc1cc(C(=O)N2CCN(C)C(=O)C2)ccc1NS(=O)(=O)c1cccc(Cl)c1` were greater than 64 µM and greater than 64 µM.
On the same counts, the results for `Cn1c(-c2cccc(Cl)c2)nc(=O)c2cc(C(=O)N3CCC(C(N)=O)CC3)ccc21` are greater than 64 µM and greater than 64 µM.
